Reference: patent US20220226484A1, “THERAPEUTIC PEPTIDES” (COHBAR, INC., priority 2019, published 2022)
Positions of bridges follow the written chain, without caps; N, C: chain ends. Primed or numbered codes have the meaning given here. Chains are numbered I, II in the order given. No end group written: not given here. PEG12′ = not defined here

What was measured:
[1] = test system: Rat primary cortical neurons; test: Neuroprotection against Aβ (1-42) toxicity in cultured neurons; type: cell-based; conditions: 24 hours
Method: Rat primary cortical neurons were collected and cultured by methods well known in the art (Singer et al., 1999 and Callizot et al., 2013). The cells were seeded at a density of 25,000 per well in 96-well plates precoated with poly-L-lysine and cultured at 37° C. in an air (95%)-CO2 (5%) incubator. The medium was changed every 2 days. The cortical neurons were treated after 11 days of culture. The A13(1-42) was prepared using the procedure described by Callizot et al., 2013 to ensure monomeric peptide. Compounds and the positive control, BDNF (50 ng/ml), were dissolved in culture medium and then pre-incubated with primary cortical neurons for 1 hour before addition of A13(1-42) (20 μM). After 24 hours of treatment, the cell culture supernatant was removed and the cortical neurons were fixed by a cold solution of ethanol (95%) and acetic acid (5%) for 5 min at −20° C. After permeabilization with 0.1% of saponin, cells were incubated for 2 hours with mouse monoclonal antibody anti-microtubule-associated-protein 2 (MAP-2) at a dilution of 1/400 in PBS containing 1% fetal calf serum and 0.1% of saponin to stain cell bodies and neurites.
This antibody was detected with Alexa Fluor 488 goat anti-mouse IgG at the dilution 1/400 in PBS containing 1% FCS, 0.1% saponin, for 1 hour at room temperature. For each condition, images were obtained using ImageXpress (Molecular Devices) with 20× magnification. The total number of cells and extent of neurite network was determined using Custom Module Editor (Molecular Devices).

[2] = test system: RENCA cells (renal adenocarcinoma cell line); test: Tumor growth in RENCA syngeneic mouse model; type: in vivo; conditions: 10 mg/kg daily intraperitoneal, female BALB/c mice, 10 per group
Method: The effect of the peptides on tumor growth can be assessed by monitoring tumor volume in syngeneic mouse cancer models such as RENCA, a mouse tumor model using a renal adenocarcinoma cell line. RENCA cells were grown in culture. On Day 0, 1.0×10^6 cells in 100 μl PBS were implanted into the mammary fat pad of female BALB/c mice. […] Test peptides were administered daily at a dose of 10 mg/kg by intraperitoneal administration. Primary tumor volumes were determined by caliper measurements twice a week. The growth rate of each tumor was calculated as the percent of the mean tumor growth of tumors observed in the control vehicle-treated group, as determined on Day 20 of the study.

human lung fibroblasts = test: Fibroblast-to-myofibroblast transition assay, alpha smooth muscle actin expression; type: cell-based; conditions: 1.25 ng/ml TGF-β1, 72 hours
Source text: The effect of the peptides on fibrosis can be assessed in vitro using a fibroblast-to-myofibroblast transition (FMT) assay and monitoring alpha smooth muscle actin ([…]SMA) produced by cultured cells such as healthy primary human lung fibroblast cells. Assay performed by Charles River Discovery Research Services UK Limited (Essex, UK). Transforming growth factor beta-1 (TGF-β1) stimulated alpha smooth muscle actin (αSMA) expression in human lung fibroblasts derived from three healthy donors was used to assess anti-fibrotic activity. Peptides were prepared as 10 mM stock in DMSO and tested in eight (8)-step concentration response curves using 0.5 Log M dilution steps with 10 μM as highest concentration (0.1% DMSO final). Transforming Growth Factor beta (TGF-β1) was used as a potent inducer of FMT as measured by increased αSMA expression. Isolated lung fibroblasts were seeded in 96-well or 384-well PureCol coated plates. Five days post-seeding, medium was refreshed, and peptides, reference compounds, and controls are added to the cells. After one hour, 1.25 ng/ml TGF-β1 was added to induce FMT. Expression of αSMA was measured 72 hours later by immunostaining, assessed by high content imaging on an IN Cell Analyzer 2200 (GE Healthcare) and quantified using an in-house developed algorithm with the IN Cell developer software (GE Healthcare). The output of the algorithm represents the staining intensity multiplied by the stained area (DxA levels). Co-staining of cell nuclei with DAPI was performed to quantify cell number, a measure of potential toxicity. The αSMA expression levels observed using 0.1% DMSO (negative control) were used to calculate percentage inhibition of αSMA by each peptide.

[3] = test system: bleomycin-induced lung fibrosis in male C57BL/6 mice; test: Therapeutic mouse model of idiopathic pulmonary fibrosis (bleomycin); type: in vivo; conditions: peptide 5 mg/kg/day intraperitoneal, nintedanib 60 mg/kg/day PO
Source text: The effect of the peptides on the progression of established lung fibrosis can be assessed by monitoring lung fibrosis, lung weight, inflammatory cells in bronchoalveolar lavage fluid (BALF), soluble collagen in BALF, and body weight change in a therapeutic mouse model of idiopathic pulmonary fibrosis. Lung fibrosis was induced in lungs of male C57BL/6 mice between the ages of 6 to 8 weeks by nasophayngeal administration of bleomycin (1.5 U/kg using bleomycin clinical formulation diluted in PBS). A control group of animals were administered saline by the nasopharyngeal route (no-bleomycin control group). After one week, bleomycin-treated animals were randomized to treatment groups (N=10 per group) by body weight and treated daily with vehicle control, nintedanib positive control (60 mg/kg/day PO) or peptide (5 mg/kg/day by intraperitoneal injection). After 14 days of treatment (Day 21), lungs were removed and weighed. The post-caval lobe was separated and snap frozen. The lungs were flushed with Hanks Buffer and bronchoalveolar lavage fluid (BALF) was harvested from each animal. Total BALF leukocyte were counted. Slides were prepared from the remaining BALF leukocytes, fixed and stained with May Geimsa stain and the differential counts were recorded manually. BALF was evaluated for soluble collagen using a Sircol assay. Lungs were fixed in 10% neutral buffered formalin (NBF) for histopathological analysis. Fibrosis was assessed by histopathological analysis of H&E stained mouse lungs using an Ashcroft scoring system.

RVIRMCLGVGLLGDLAG [SEQ ID NO: 3]
Percent Protection of Neuronal Network ([1]; Aβ (1-42) 20 μM + peptide 100 nM): 80% | Percent Protection of Neuronal Network ([1]; Aβ (1-42) 20 μM + peptide 10 uM): 81%

RVIRMCLGVGLLGDLAGK{PEG12} (chain 1 RVIRMCLGVGLLGDLAGK(PEG12′); chain 2 RVIRMCLGVGLLGDLAGK(PEG12′); disulfide I:6-II:6) [SEQ ID NO: 28]
Mean (SEM) Percent of Control Group Tumor Growth at Day 20 [2]: 57.3 (14.4) Percent | Mean Percent Inhibition of alpha-SMA Expression (human lung fibroblasts; peptide 0.00316 μM): 6.25% | Mean Percent Inhibition of alpha-SMA Expression (human lung fibroblasts; peptide 0.01 μM): 1.25% | Mean Percent Inhibition of alpha-SMA Expression (human lung fibroblasts; peptide 0.0316 μM): −5.63% | Mean Percent Inhibition of alpha-SMA Expression (human lung fibroblasts; peptide 0.1 μM): −5.63% | Mean Percent Inhibition of alpha-SMA Expression (human lung fibroblasts; peptide 0.316 μM): 4.06% | Mean Percent Inhibition of alpha-SMA Expression (human lung fibroblasts; peptide 1 μM): 28.1% | Mean Percent Inhibition of alpha-SMA Expression (human lung fibroblasts; peptide 3.16 μM): 81.6% | Mean Percent Inhibition of alpha-SMA Expression (human lung fibroblasts; peptide 10 μM): 88.1% | Mean (SEM) Leukocyte Count in BALF (Percent of Bleomycin Control) ([3]; Day 21, 14 days of treatment): 72.2 (5.96) Percent | Mean (SEM) Lung Weight (Percent of Bleomycin Control) ([3]; Day 21, 14 days of treatment): 73.8 (3.13) Percent | Mean (SEM) Percent Body Weight Change from Baseline ([3]; Day 21, 14 days of treatment): 2.71 (1.48) Percent | Mean (SEM) Collagen Content in BALF (Percent of Bleomycin Control) ([3]; Sircol assay, Day 21): 49.6 (6.48) Percent | Mean (SEM) Ashcroft Score (Percent of Bleomycin Control) ([3]; histopathology, Day 21): 80.73 (7.24) Percent
